target: human Cav2.2 (Homo sapiens, UniProt Q00975); assay: Assessment of calcium channel activity using FLIPR (Ca2+ influx in IMR32 cells); format: cell-based; conditions: not given
In short: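 Human neuroblastoma IMR32 cells were seeded at 1−1.2×10^5 cells/well and cultured 48 h at 37 °C before FLIPR calcium influx measurement. Percent inhibition at each concentration was calculated against the no-inhibitor signal, and IC50 came from sigmoidal dose-response fits.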

human Cav2.2, sequence (Q00975 whole entry): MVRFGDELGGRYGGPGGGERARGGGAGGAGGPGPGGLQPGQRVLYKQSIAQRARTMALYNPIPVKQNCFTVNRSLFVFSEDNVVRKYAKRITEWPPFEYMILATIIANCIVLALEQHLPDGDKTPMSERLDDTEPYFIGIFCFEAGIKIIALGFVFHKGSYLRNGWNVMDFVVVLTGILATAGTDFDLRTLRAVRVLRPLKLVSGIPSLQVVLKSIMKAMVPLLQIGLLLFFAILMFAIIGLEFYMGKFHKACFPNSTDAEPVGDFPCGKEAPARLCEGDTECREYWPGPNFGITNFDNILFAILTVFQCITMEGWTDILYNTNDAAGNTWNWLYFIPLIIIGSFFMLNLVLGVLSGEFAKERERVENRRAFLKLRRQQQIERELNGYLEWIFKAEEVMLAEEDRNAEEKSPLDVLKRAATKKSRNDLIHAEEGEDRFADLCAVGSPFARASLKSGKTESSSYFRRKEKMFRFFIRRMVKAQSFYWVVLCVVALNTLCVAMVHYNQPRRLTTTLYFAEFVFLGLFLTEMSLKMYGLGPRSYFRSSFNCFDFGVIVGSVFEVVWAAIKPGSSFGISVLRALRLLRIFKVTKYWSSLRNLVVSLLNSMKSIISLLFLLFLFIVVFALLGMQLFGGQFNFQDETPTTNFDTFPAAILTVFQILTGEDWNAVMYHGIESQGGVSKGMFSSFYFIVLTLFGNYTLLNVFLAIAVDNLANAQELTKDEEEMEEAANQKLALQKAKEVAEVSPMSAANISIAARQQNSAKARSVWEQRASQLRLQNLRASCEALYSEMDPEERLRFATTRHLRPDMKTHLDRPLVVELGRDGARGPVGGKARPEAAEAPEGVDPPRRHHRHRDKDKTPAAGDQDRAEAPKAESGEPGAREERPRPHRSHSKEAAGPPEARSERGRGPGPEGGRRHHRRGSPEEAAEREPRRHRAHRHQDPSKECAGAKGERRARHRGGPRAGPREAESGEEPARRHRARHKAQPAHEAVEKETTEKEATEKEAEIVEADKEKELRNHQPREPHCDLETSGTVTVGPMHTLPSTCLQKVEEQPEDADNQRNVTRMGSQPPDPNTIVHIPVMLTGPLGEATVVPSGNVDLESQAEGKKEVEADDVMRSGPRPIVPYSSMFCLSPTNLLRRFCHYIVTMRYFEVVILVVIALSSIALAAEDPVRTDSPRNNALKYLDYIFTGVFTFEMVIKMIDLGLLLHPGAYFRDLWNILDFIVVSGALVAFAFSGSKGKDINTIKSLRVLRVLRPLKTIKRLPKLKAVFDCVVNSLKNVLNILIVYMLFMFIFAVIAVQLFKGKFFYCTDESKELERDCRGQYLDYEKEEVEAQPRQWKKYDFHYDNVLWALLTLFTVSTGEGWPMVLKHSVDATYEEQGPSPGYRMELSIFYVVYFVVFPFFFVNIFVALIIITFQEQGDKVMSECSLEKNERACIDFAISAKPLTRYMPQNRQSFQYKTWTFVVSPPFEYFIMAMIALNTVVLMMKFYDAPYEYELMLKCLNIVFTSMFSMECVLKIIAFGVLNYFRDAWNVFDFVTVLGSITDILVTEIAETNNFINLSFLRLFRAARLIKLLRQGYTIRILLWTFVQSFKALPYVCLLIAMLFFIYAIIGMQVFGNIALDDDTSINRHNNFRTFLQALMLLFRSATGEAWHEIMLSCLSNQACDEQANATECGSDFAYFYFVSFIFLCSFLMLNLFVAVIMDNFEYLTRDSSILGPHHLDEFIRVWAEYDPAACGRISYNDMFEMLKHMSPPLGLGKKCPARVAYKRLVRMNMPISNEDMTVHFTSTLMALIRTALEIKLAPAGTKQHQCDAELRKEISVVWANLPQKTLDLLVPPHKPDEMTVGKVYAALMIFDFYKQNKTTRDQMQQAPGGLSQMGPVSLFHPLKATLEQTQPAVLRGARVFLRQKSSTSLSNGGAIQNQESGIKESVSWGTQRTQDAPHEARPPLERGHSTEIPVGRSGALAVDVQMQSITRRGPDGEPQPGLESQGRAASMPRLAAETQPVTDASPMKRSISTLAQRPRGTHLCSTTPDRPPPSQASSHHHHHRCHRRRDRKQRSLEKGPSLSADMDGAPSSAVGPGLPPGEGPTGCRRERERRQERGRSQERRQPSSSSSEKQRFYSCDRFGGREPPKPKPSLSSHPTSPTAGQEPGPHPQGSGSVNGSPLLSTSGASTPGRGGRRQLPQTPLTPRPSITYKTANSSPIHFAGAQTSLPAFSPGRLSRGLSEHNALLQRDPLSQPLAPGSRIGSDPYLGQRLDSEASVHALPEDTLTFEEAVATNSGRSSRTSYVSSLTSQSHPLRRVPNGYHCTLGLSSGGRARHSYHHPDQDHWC
human Cav2.2, sequence (P54289 25-956 partner limits assumed): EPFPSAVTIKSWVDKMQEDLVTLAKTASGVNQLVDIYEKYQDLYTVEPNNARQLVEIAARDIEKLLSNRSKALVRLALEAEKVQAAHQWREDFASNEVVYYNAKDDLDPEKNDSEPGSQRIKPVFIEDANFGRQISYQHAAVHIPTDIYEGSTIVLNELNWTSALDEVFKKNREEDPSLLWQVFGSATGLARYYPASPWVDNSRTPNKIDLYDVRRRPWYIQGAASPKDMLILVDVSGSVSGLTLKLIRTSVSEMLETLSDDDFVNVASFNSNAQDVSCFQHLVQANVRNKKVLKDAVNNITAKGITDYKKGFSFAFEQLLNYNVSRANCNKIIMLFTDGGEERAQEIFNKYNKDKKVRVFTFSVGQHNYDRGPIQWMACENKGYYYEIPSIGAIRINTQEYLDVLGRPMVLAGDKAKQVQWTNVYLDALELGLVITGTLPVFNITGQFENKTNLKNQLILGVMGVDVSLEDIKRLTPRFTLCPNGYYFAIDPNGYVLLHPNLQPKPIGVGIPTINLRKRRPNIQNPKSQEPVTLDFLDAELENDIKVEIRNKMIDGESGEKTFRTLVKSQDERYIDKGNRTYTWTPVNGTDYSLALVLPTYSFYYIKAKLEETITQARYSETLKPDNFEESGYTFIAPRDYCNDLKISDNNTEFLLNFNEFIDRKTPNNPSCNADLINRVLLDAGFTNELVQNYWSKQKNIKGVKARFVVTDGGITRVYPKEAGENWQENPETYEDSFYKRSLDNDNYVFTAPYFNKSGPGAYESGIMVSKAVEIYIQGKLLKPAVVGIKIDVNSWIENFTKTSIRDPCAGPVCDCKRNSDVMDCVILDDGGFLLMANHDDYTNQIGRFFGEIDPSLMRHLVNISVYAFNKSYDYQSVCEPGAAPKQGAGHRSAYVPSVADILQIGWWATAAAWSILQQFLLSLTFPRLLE
human Cav2.2, sequence (P54289 957-1103 partner limits assumed): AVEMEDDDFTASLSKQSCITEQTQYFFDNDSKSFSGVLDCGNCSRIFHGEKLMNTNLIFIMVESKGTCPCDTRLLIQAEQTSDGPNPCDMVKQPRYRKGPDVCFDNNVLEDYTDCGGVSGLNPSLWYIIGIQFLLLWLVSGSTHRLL
human Cav2.2, sequence (P54284 whole entry partner): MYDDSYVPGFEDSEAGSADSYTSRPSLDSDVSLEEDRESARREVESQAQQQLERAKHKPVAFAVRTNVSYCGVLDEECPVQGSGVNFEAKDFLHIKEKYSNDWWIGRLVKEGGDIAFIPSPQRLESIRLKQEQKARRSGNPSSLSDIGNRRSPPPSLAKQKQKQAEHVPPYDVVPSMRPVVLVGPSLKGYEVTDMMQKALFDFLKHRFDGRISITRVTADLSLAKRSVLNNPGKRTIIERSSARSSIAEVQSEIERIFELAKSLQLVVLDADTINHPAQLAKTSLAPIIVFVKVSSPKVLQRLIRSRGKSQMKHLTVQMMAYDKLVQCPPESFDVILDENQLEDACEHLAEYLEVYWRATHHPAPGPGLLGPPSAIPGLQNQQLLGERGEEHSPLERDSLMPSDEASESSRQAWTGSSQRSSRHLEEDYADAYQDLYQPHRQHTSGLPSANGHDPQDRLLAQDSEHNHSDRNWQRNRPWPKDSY

Row | Structure (SMILES) | IC50
1 | CC(C)(C)C[C@H](NC(=O)OC(C)(C)C)C(=O)N[C@H]1CC[C@@H]2CN(C(=O)[C@H](CC(C)(C)C)NC(=O)OC(C)(C)C)C[C@@H]21 [Example 463, tert-butyl(S)-1-((3aR,4S,6aS)-4-((S)-2-(tert-butoxycarbonylamino)-4,4-dimethylpentanamido)hexahydrocyclopenta[c]pyrrol-2(1H)-yl)-4,4-dimethyl-1-oxopentan-2-ylcarbamate] | 2.03 µM
2 | CC(C)CC(C(=O)NC1CCC2CN(Cc3ccc(F)c(C(F)(F)F)c3)CC21)N(C)C(=O)OC(C)(C)C [Example 312, tert-butyl(S)-1-((3aS,4R,6aR)-2-(4-fluoro-3-(trifluoromethyl)benzyl)octahydrocyclopenta[c]pyrrol-4-ylamino)-4-methyl-1-oxopentan-2-ylmethyl)carbamate] | 1.59 µM
3 | CC(C)CC(C(=O)NC1CCC2CN(Cc3ccc(C(F)(F)F)c(F)c3)CC21)N(C)C(=O)OC(C)(C)C [Example 311, tert-butyl(S)-1-((3aS,4R,6aR)-2-(3-fluoro-4-(trifluoromethyl)benzyl)octahydrocyclopenta[c]pyrrol-4-ylamino)-4-methyl-1-oxopentan-2-ylmethyl)carbamate] | 2.05 µM
4 | Cc1cccc(CN2C[C@@H]3CC[C@H](NC(=O)C(C4CCCCC4)C4CCCCC4)[C@@H]3C2)c1 [Example 61, 2,2-dicyclohexyl-N-[(3aS,4S,6aR)-2-(3-methylbenzyl)octahydrocyclopenta[c]pyrrol-4-yl]acetamide] | 0.86 µM
5 | CC(C)C(C(=O)N[C@H]1CC[C@H]2CN(Cc3cccc(C(F)(F)F)c3)C[C@H]21)c1ccccc1 (relative stereo) [Example 122, 3-methyl-2-phenyl-N-{(3aS*,4S*,6aR*)-2-[3-(trifluoromethyl)benzyl]octahydrocyclopenta[c]pyrrol-4-yl}butanamide] | 0.36 µM

Continued, values first:

Row | IC50 | Structure (SMILES)
6 | 5.87 µM | O=C(N[C@H]1CC[C@@H]2CN(S(=O)(=O)c3cccc(C(F)(F)F)c3)C[C@@H]21)[C@@H]1CCCN1 [Example 387, N-((3aR,4S,6aS)-2-{[3-(trifluoromethyl)phenyl]sulfonyl}octahydrocyclopenta[c]pyrrol-4-yl)-L-prolinamide]
7 | 1.38 µM | CC(C)(C)NC(=O)N[C@H]1CC[C@@H]2CN(c3cccc(C(F)(F)F)n3)C[C@@H]21 [Example 711, 1-tert-butyl-3-{(3aR,4S,6aS)-2-[6-(trifluoromethyl)pyridin-2-yl]octahydrocyclopenta[c]pyrrol-4-yl}urea]
8 | 6.18 µM | O=C(Nc1ccc(F)cc1)N[C@H]1CC[C@@H]2CN(c3cccc(C(F)(F)F)n3)C[C@@H]21 [Example 709, 1-(4-fluorophenyl)-3-{(3aR,4S,6aS)-2-[6-(trifluoromethyl)pyridin-2-yl]octahydrocyclopenta[c]pyrrol-4-yl}urea]
9 | 1.89 µM | FC(F)(F)c1cccc(N2C[C@H]3CC[C@H](NCc4ccn[nH]4)[C@H]3C2)n1 [Example 663, (3aR,4S,6aS)-N-(1H-pyrazol-5-ylmethyl)-2-[6-(trifluoromethyl)pyridin-2-yl]octahydrocyclopenta[c]pyrrol-4-amine]
10 | 2.16 µM | FC(F)(F)c1cccc(N2C[C@H]3CC[C@H](NCc4nc(-c5ccccc5)[nH]c4Cl)[C@H]3C2)n1 [Example 726, (3aR,4S,6aS)-N-[(5-chloro-2-phenyl-1H-imidazol-4-yl)methyl]-2-[6-(trifluoromethyl)pyridin-2-yl]octahydrocyclopenta[c]pyrrol-4-amine]
11 | 14.9 µM | N#Cc1ccccc1N1C[C@H]2CC[C@H](NC(=O)[C@@H]3C[C@@H](F)CN3)[C@H]2C1 [Example 651, (4R)-N-[(3aR,4S,6aS)-2-(2-cyanophenyl)octahydrocyclopenta[c]pyrrol-4-yl]-4-fluoro-L-prolinamide]
12 | 1.08 µM | Cc1ccc(C(=O)N[C@H]2CC[C@@H]3CN(c4cccc(C(F)(F)F)n4)C[C@@H]32)o1 [Example 576, 5-methyl-N-{(3aR,4S,6aS)-2-[6-(trifluoromethyl)pyridin-2-yl]octahydrocyclopenta[c]pyrrol-4-yl}-2-furamide]
13 | 1.21 µM | Fc1ccc(-c2c[nH]c(CN[C@H]3CC[C@@H]4CN(c5cccc(C(F)(F)F)n5)C[C@@H]43)n2)cc1 [Example 744, (3aR,4S,6aS)-N-{[4-(4-fluorophenyl)-1H-imidazol-2-yl]methyl}-2-[6-(trifluoromethyl)pyridin-2-yl]octahydrocyclopenta[c]pyrrol-4-amine]
14 | 1.69 µM | O=C(N[C@H]1CC[C@@H]2CN(c3ccccc3C(F)(F)F)C[C@@H]21)[C@@H]1C[C@@H](F)CN1 [Example 622, (4R)-4-fluoro-N-{(3aR,4S,6aS)-2-[2-(trifluoromethyl)phenyl]octahydrocyclopenta[c]pyrrol-4-yl}-L-prolinamide]
15 | 4.22 µM | CN[C@@H](CC(C)C)C(=O)N[C@H]1CC[C@@H]2CN(c3cccc(F)c3)C[C@@H]21 [Example 629, N-[(3aR,4S,6aS)-2-(3-fluorophenyl)octahydrocyclopenta[c]pyrrol-4-yl]-N^2-methyl-L-leucinamide]
16 | > 30 µM | CCC[C@H](NC)C(=O)N[C@H]1CC[C@@H]2CN(S(=O)(=O)c3cccnc3)C[C@@H]21 [Example 535, N^2-methyl-N^1-[(3aR,4S,6aS)-2-(pyridin-3-ylsulfonyl)octahydrocyclopenta[c]pyrrol-4-yl]-L-norvalinamide]
17 | 0.59 µM | O=S(=O)(c1cccc(C(F)(F)F)c1)N1C[C@H]2CC[C@H](NCc3cc4cc(F)ccc4[nH]3)[C@H]2C1 [Example 650, (3aR,4S,6aS)-N-[(5-fluoro-1H-indol-2-yl)methyl]-2-{[3-(trifluoromethyl)phenyl]sulfonyl}octahydrocyclopenta[c]pyrrol-4-amine]

same assay, conditions: read-out: IC50 (μM) or percent inhibition (* indicates 3 minute incubation, otherwise 60 minute); IC50; 60 minute pre-incubation with compound; IMR32 cells, 80 mM KCl depolarization

Row | Structure (SMILES) | IC50
18 | CC(C)C[C@H](NC(=O)NC(C)(C)C)C(=O)N[C@@H]1CC[C@H]2CN(Cc3cccc(C(F)(F)F)c3)C[C@H]21 [Example 180, N^2-[(tert-butylamino)carbonyl]-N^1-{(3aS,4R,6aR)-2-[3-(trifluoromethyl)benzyl]octahydrocyclopenta[c]pyrrol-4-yl}-L-leucinamide] | 1.83 µM
19 | CC(C)C(C(=O)N[C@H]1CC[C@@H]2CN(CCC(c3ccc(F)cc3)c3ccc(F)cc3)C[C@@H]21)c1ccccc1 (stereo partly drawn) [Example 117, N-{(3aR,4S,6aS)-2-[3,3-bis(4-fluorophenyl)propyl]octahydrocyclopenta[c]pyrrol-4-yl}-3-methyl-2-phenylbutanamide] | 0.88 µM
20 | O=C(N[C@@H]1CC[C@H]2CN(Cc3cc(C(F)(F)F)cc(C(F)(F)F)c3)C[C@H]21)C(C1CCCCC1)C1CCCCC1 [Example 77, N-{(3aS,4R,6aR)-2-[3,5-bis(trifluoromethyl)benzyl]octahydrocyclopenta[c]pyrrol-4-yl}-2,2-dicyclohexylacetamide] | 9.36 µM
21 | O=C(N[C@@H]1CC[C@H]2CN(CCC(c3ccc(F)cc3)c3ccc(F)cc3)C[C@H]21)C(C1CCCCC1)C1CCCCC1 [Example 80, N-{(3aS,4R,6aR)-2-[3,3-bis(4-fluorophenyl)propyl]octahydrocyclopenta[c]pyrrol-4-yl}-2,2-dicyclohexylacetamide] | 1.67 µM
22 | CC(C)C[C@H](NC(=O)OC1CCCC1)C(=O)N[C@@H]1CC[C@H]2CN(Cc3cccc(C(F)(F)F)c3)C[C@H]21 [Example 179, cyclopentyl(S)-4-methyl-1-oxo-1-((3aS,4R,6aR)-2-(3-(trifluoromethyl)benzyl)octahydrocyclopenta[c]pyrrol-4-ylamino)pentan-2-ylcarbamate] | 0.89 µM
23 | CC(C)C(C(=O)N[C@H]1CC[C@@H]2CN(CCC(c3ccccc3)c3ccccc3)C[C@@H]21)c1ccccc1 (stereo partly drawn) [Example 116, N-[(3aR,4S,6aS)-2-(3,3-diphenylpropyl)octahydrocyclopenta[c]pyrrol-4-yl]-3-methyl-2-phenylbutanamide] | 1.17 µM
24 | O=C(N[C@@H]1CC[C@H]2CN(Cc3cccc(C(F)(F)F)c3)C[C@H]21)C(O)(C1CCCCC1)C1CCCCC1 [Example 154, 2,2-dicyclohexyl-2-hydroxy-N-{(3aS,4R,6aR)-2-[3-(trifluoromethyl)benzyl]octahydrocyclopenta[c]pyrrol-4-yl}acetamide] | 1.33 µM
25 | O=C(N[C@@H]1CC[C@H]2CN(C(c3ccccc3)c3ccccc3)C[C@H]21)C(C1CCCCC1)C1CCCCC1 [Example 121, N-[(3aS,4R,6aR)-2-benzhydryloctahydrocyclopenta[c]pyrrol-4-yl]-2,2-dicyclohexylacetamide] | 14.3 µM
26 | O=S(=O)(N[C@H]1CC[C@H]2CN(Cc3cccc(C(F)(F)F)c3)C[C@H]21)c1cccc(C(F)(F)F)c1 (relative stereo) [Example 185, 3-(trifluoromethyl)-N-{(3aS*,4S*,6aR*)-2-[3-(trifluoromethyl)benzyl]octahydrocyclopenta[c]pyrrol-4-yl}benzenesulfonamide] | 0.91 µM
27 | CC(C)C[C@H](NC(=O)OC(C)(C)C)C(=O)N[C@@H]1CC[C@H]2CN(Cc3cccc(C(F)(F)F)c3)C[C@H]21 (relative stereo) [Example 148, N^2-(tert-butyloxycarbonyl)-N^1-{(3aS*,4R*,6aR*)-2-[3-(trifluoromethyl)benzyl]octahydrocyclopenta[c]pyrrol-4-yl}-L-leucinamide] | 0.83 µM
28 | CN[C@@H](CC(C)C)C(=O)N[C@@H]1CC[C@H]2CN(Cc3cccc(C(F)(F)F)c3)C[C@H]21 [Example 166, N^2-methyl-N^1-{(3aS,4R,6aR)-2-[3-(trifluoromethyl)benzyl]octahydrocyclopenta[c]pyrrol-4-yl}-L-leucinamide] | 2.72 µM

More lines, now with the values ahead:

Row | IC50 | Structure (SMILES)
29 | 4.44 µM | CC(C)C[C@H](NS(=O)(=O)c1ccccc1)C(=O)N[C@@H]1CC[C@H]2CN(Cc3cccc(C(F)(F)F)c3)C[C@H]21 [Example 523, N^2-(phenylsulfonyl)-N^1-{(3aS,4R,6aR)-2-[3-(trifluoromethyl)benzyl]octahydrocyclopenta[c]pyrrol-4-yl}-L-leucinamide]
30 | 8.37 µM | CCC[C@H](NC)C(=O)N[C@H]1CC[C@@H]2CN(S(=O)(=O)c3ccc(C#N)cc3)C[C@@H]21 [Example 536, N^1-{(3aR,4S,6aS)-2-[(4-cyanophenyl)sulfonyl]octahydrocyclopenta[c]pyrrol-4-yl}-N^2-methyl-L-norvalinamide]

— US8691865B2 (AbbVie Inc., priority 2008, dated 2014)
